US20100040762A1 (Plantextrakt GmbH & Co. KG, priority 2006, published 2010)

Assays:
[1] = test system: isolated rat brain hippocampal section preparation; experiment: isolated rat brain hippocampal section preparation, extra-cellular field potentials after electrical stimulation; conditions: in vitro, single stimulus excitation and theta-burst stimulation
Protocol: The measured field potentials were recorded after a single stimulus excitation and theta-burst stimulation.

Fischer-344 rats = experiment: tele-stereo-EEG on unrestrained rats; type: in vivo, rat; conditions: oral administration; frontal cortex, hippocampus, striatum, reticular formation
Protocol: Supplementing in-vivo experiments on unrestrained rats by means of quantitative detection of the electric brain activity (tele-stereo-EEG). Observed were adult, unrestrained Fischer-344 rats with implanted 4 bipolar concentric brain electrodes. A continuous in-vivo analysis of the electric field potential (tele-stereo-EEG) of the frontal cortex, hippocampus, striatum, and reticular formation was performed analogous to Dimpfel et. al 1986. Additionally, the mobility of the rats was measured using a video tracking system by GJB […] GmbH, […], Germany. […] The “tele-stereo-EEG” model on unrestrained rats was chosen as the in-vivo model to validate results that were obtained following the rat-hippocampus in-vitro experiments, in particular the crossing of the blood-brain barrier for the described substances.

Structure (SMILES) | influence on hippocampal electrical activity [1] | electric field potentials (tele-stereo-EEG) (Fischer-344 rats)
N[C@@H](CCC(=O)O)C(=O)O [Glutamic acid, glutamic acid] | stimulating substances | 
O=C(O)[C@]1(O)C[C@@H](O)[C@@H](O)[C@H](O)C1 [quinic acid] | stimulating substances | principally contribute to the measured results
CCNC(=O)CC[C@H](N)C(=O)O [theanine, 5-N-ethyl-L-glutamine] | opposite effect | principally contribute to the measured results
O=C(O[C@@H]1C[C@@](O)(C(=O)O)C[C@@H](O)[C@@H]1O)c1cc(O)c(O)c(O)c1 [theogallin, 5-galloyl quinic acid] | stimulating substances | principally contribute to the measured results
